According to US20070060558A1 (PALUMED S.A., priority 2004, published 2007):
Converted amounts (≈) assume the structure as drawn. Counter-ions that a name gives are not always drawn. Like-named read-outs stand apart in the source and are kept apart here.

Experiments:
[1] = tested on: Staphylococcus aureus MSSA CIP 4.83; experiment: Antibacterial activity (MIC/MBC); assay type: cell-based; conditions: Staphylococcus aureus
[2] = tested on: S. aureus MRSA clinical isolate; experiment: Antibacterial activity (MIC); assay type: cell-based, Staphylococcus aureus; conditions: Staphylococcus aureus
S. aureus MsrA PUL 5054 = experiment: Antibacterial activity (MIC); assay type: cell-based; conditions: Staphylococcus aureus
[3] = tested on: S. aureus VISA CIP 106757; experiment: Antibacterial activity (MIC); assay type: cell-based; conditions: Staphylococcus aureus
[4] = tested on: S. epidermidis MSCNS (D10); experiment: Antibacterial activity (MIC); assay type: cell-based; conditions: Staphylococcus epidermidis
[5] = tested on: S. epidermidis MRCNS (E93); experiment: Antibacterial activity (MIC); assay type: cell-based; conditions: Staphylococcus epidermidis
[6] = tested on: S. pneumoniae PSSP CQI 201; experiment: Antibacterial activity (MIC); assay type: cell-based, Streptococcus pneumoniae; conditions: Streptococcus pneumoniae
[7] = tested on: S. pneumoniae PRSP (CQR 162); experiment: Antibacterial activity (MIC); assay type: cell-based; conditions: Streptococcus pneumoniae
S. pyogenes CIP 56.41T = experiment: Antibacterial activity (MIC/MBC); assay type: cell-based, Streptococcus pyogenes; conditions: Streptococcus pyogenes, CIP56
[8] = tested on: E. faecium VRE VanA CIP107387; experiment: Antibacterial activity (MIC); assay type: cell-based; conditions: Enterococcus faecium
[9] = tested on: E. faecalis VRE VanA CIP106996; experiment: Antibacterial activity (MIC); assay type: cell-based; conditions: Enterococcus faecalis
[10] = tested on: E. faecalis VRE VanB CIP106998; experiment: Antibacterial activity (MIC); assay type: cell-based; conditions: Enterococcus faecalis
C. difficile CIP 104282 = experiment: Antibacterial activity (MIC); assay type: cell-based, Clostridium difficile; conditions: Clostridioides difficile, CIP104282
[11] = tested on: Staphylococcus aureus MSSA 53.154; experiment: Murine experimental septicaemia, in vivo efficacy; design: species or system mice; conditions: sc
Protocol: Experimental septicaemia was induced in mice as follows. Briefly, male Swiss OF1 mice (IFFA CREDO-Charles River) weighing 18 to 20 grams were infected intraperitoneally with 0.5 mL of a bacterial suspension containing 8.5×10^7 cfu of Staphylococcus aureus MSSA 53.154 (Institut Pasteur). The hybrid molecules were administered subcutaneously at 1 and 6 h post infection. Control and treatment groups at each dose were composed of seven mice. All the infected but untreated control mice died within 9 days. The 50% effective dose (ED50) values were calculated by a computerized program (GraphPad) from the survival rates on day 9 after infection.

[12] = tested on: Human lung fibroblast cells (ATCC CCL-171); experiment: Cytotoxicity (MTT) assay; conditions: human, 18 hr
Protocol: Cellular toxicity was measured by a colorimetric assay that makes use of the tetrazolium salt, MTT. Human lung fibroblast cells (ATCC CCL-171) were plated in 96-well plates at 10^4 cells per well and incubated under 5% CO2 at 37° C. for 24 hr to allow adherence of cells to the plate. Test compounds were prepared as a stock solution at 1 mg/mL in 1% DMSO/water and diluted with water for the serial dilutions (500-7.8 μg/mL). Cells underwent a 18 hr treatment under 5% CO2 at 37° C. with experimental drugs. Corresponding controls received either no drug treatment or treatment with SDS (sodium dodecyl sulfate). The optical density of each sample was read on a microplate spectrophotometer reader at 600 nm and cell survival was expressed as a fraction of that of untreated controls. A drug is said cytotoxic when this fraction is ≦−30%

S. aureus NorA 1199B = experiment: Antibacterial activity (MIC); assay type: cell-based, Staphylococcus aureus
S. pneumoniae PRSP = experiment: Antibacterial activity (MIC), Table VII; assay type: cell-based; conditions: Streptococcus pneumoniae, PRSP
[13] = tested on: E. faecalis VRE CIP 104676; experiment: Antibacterial activity (MIC/MBC); assay type: cell-based, Enterococcus faecalis; conditions: Enterococcus faecalis
H. influenzae CIP 102514 = experiment: Antibacterial activity (MIC/MBC); assay type: cell-based, Haemophilus influenzae; conditions: Haemophilus influenzae, CIP102514
E. coli CIP 54127 = experiment: Antibacterial activity (MIC); assay type: cell-based; conditions: Escherichia coli, CIP54127
P. aeruginosa CIP 103467 = experiment: Antibacterial activity (MIC); assay type: cell-based; conditions: Pseudomonas aeruginosa, CIP103467
B. subtilis CIP 5262 = experiment: Antibacterial activity (MIC); assay type: cell-based; conditions: Bacillus subtilis, CIP5262
[14] = tested on: B. thuringiensis CIP 104676; experiment: Antibacterial activity (MIC); assay type: cell-based; conditions: Bacillus thuringiensis, CIP104676
[15] = S. aureus MSSA CIP 4.83, read-out: MIC
[16] = S. aureus MRSA clinical isolate, read-out: MIC
[17] = S. aureus VISA CIP 106757, read-out: MIC
[18] = S. epidermidis MSCNS (D10), read-out: MIC
[19] = S. epidermidis MRCNS (E93), read-out: MIC
[20] = S. pneumoniae PSSP CQI 201, read-out: MIC
[21] = S. pneumoniae PRSP (CQR 162), read-out: MIC
[22] = S. pyogenes CIP 56.41T, read-out: MIC
[23] = E. faecium VRE VanA CIP107387, read-out: MIC
[24] = E. faecalis VRE VanA CIP106996, read-out: MIC
[25] = E. faecalis VRE VanB CIP106998, read-out: MIC
[26] = C. difficile CIP 104282, read-out: MIC
[27] = mice, subcutaneously at 1 and 6 h post infection, survival on day 9, hybrid molecules formulated in water as their bis(hydrochloride) salt, read-out: ED50

Structure (SMILES)	MIC [1, 15]	MIC [2, 16]	MIC (S. aureus MsrA PUL 5054)	MIC [3, 17]	MIC [4, 18]	MIC [5, 19]	MIC [6, 20]	MIC [7, 21]	MIC (S. pyogenes CIP 56.41T; [22])	MIC [8, 23]	MIC [9, 24]	MIC [10, 25]	MIC (C. difficile CIP 104282; [26])	ED50 [11, 27]	% of survival cells compared to the untreated controls ([12]; 7.8 μg/mL)	% of survival cells compared to the untreated controls ([12]; 15.6 μg/mL)	% of survival cells compared to the untreated controls ([12]; 31.2 μg/mL)	% of survival cells compared to the untreated controls ([12]; 62.5 μg/mL)	% of survival cells compared to the untreated controls ([12]; 125 μg/mL)	% of survival cells compared to the untreated controls ([12]; 250 μg/mL)	further results
CN[C@H](CC(C)C)C(=O)N[C@H]1C(=O)N[C@@H](CC(N)=O)C(=O)N[C@H]2C(=O)N[C@H]3C(=O)N[C@H](C(=O)N[C@H](C(=O)O)c4cc(O)cc(O)c4-c4cc3ccc4O)[C@H](O)c3ccc(c(Cl)c3)Oc3cc2cc(c3OC2OC(CO)C(O)C(O)C2OC2CC(C)(NCc3ccc(OCCNc4ccnc5cc(Cl)ccc45)cc3)C(O)C(C)O2)Oc2ccc(cc2Cl)[C@H]1O (some centres unmarked) [PA 1157, N-4-{4-[2-(7-Chloroquinolin-4-ylamino)ethoxy]-benzyl}-vancomycin]	0.012 µg/mL (≈ 0.00682 µM)	0.2 µg/mL (≈ 0.114 µM)	< 0.045 µg/mL	0.1 µg/mL (≈ 0.0568 µM)	0.05 µg/mL (≈ 0.0284 µM)	0.003 µg/mL (≈ 0.0017 µM)	0.003 µg/mL (≈ 0.0017 µM)	0.003 µg/mL (≈ 0.0017 µM)	0.125 µg/mL (≈ 0.071 µM)	6.25 µg/mL (≈ 3.55 µM)	3.12 µg/mL (≈ 1.78 µM)	6.25 µg/mL (≈ 3.55 µM)	0.078 µg/mL (≈ 0.0443 µM)	0.09 mg/kg	−22.0%	−22.5%	−24.2%	−24.9%	−26.9%	−26.2%	% of survival cells compared to the untreated controls ([12]; 500 μg/mL): −29.2%
CN[C@H](CC(C)C)C(=O)N[C@H]1C(=O)N[C@@H](CC(N)=O)C(=O)N[C@H]2C(=O)N[C@H]3C(=O)N[C@H](C(=O)N[C@H](C(=O)O)c4cc(O)cc(O)c4-c4cc3ccc4O)[C@H](O)c3ccc(c(Cl)c3)Oc3cc2cc(c3OC2OC(CO)C(O)C(O)C2OC2CC(C)(NCCCCNc3ccnc4cc(Cl)ccc34)C(O)C(C)O2)Oc2ccc(cc2Cl)[C@H]1O (some centres unmarked) [PA 1158, N-4-[4(7-Chloroquinolin-4-ylamino)-butyl]-vancomycin]	0.1 µg/mL (≈ 0.0595 µM)	0.2 µg/mL (≈ 0.119 µM)	< 0.045 µg/mL	0.39 µg/mL (≈ 0.232 µM)	0.1 µg/mL (≈ 0.0595 µM)	0.05 µg/mL (≈ 0.0297 µM)	0.012 µg/mL (≈ 0.00713 µM)	0.025 µg/mL (≈ 0.0149 µM)	0.062 µg/mL (≈ 0.0369 µM)	25 µg/mL (≈ 14.9 µM)	6.25 µg/mL (≈ 3.72 µM)	6.25 µg/mL (≈ 3.72 µM)	0.078 µg/mL (≈ 0.0464 µM)	0.26 mg/kg	−11.8%	−13.2%	−10.7%	−16.9%	−16.9%	−19.8%	% of survival cells compared to the untreated controls ([12]; 500 μg/mL): −18.4%
CN[C@H](CC(C)C)C(=O)N[C@H]1C(=O)N[C@@H](CC(N)=O)C(=O)N[C@H]2C(=O)N[C@H]3C(=O)N[C@H](C(=O)N[C@H](C(=O)O)c4cc(O)cc(O)c4-c4cc3ccc4O)[C@H](O)c3ccc(c(Cl)c3)Oc3cc2cc(c3OC2OC(CO)C(O)C(O)C2OC2CC(C)(NCCNc3ccnc4cc(Cl)ccc34)C(O)C(C)O2)Oc2ccc(cc2Cl)[C@H]1O (some centres unmarked) [PA 1159]	0.2 µg/mL (≈ 0.121 µM)	0.1 µg/mL (≈ 0.0605 µM)	< 0.045 µg/mL	0.2 µg/mL (≈ 0.121 µM)	0.2 µg/mL (≈ 0.121 µM)	0.05 µg/mL (≈ 0.0302 µM)	0.006 µg/mL (≈ 0.00363 µM)	0.025 µg/mL (≈ 0.0151 µM)	0.125 µg/mL (≈ 0.0756 µM)	25 µg/mL (≈ 15.1 µM)	1.56 µg/mL (≈ 0.943 µM)	12.5 µg/mL (≈ 7.56 µM)	0.16 µg/mL (≈ 0.0967 µM)	0.37 mg/kg	–	–	–	–	–	–	–
CN[C@H](CC(C)C)C(=O)N[C@H]1C(=O)N[C@@H](CC(N)=O)C(=O)N[C@H]2C(=O)N[C@H]3C(=O)N[C@H](C(=O)N[C@H](C(=O)O)c4cc(O)cc(O)c4-c4cc3ccc4O)[C@H](O)c3ccc(c(Cl)c3)Oc3cc2cc(c3O[C@@H]2O[C@H](CO)[C@@H](O)[C@H](O)[C@H]2O[C@H]2C[C@](C)(N)[C@H](O)[C@H](C)O2)Oc2ccc(cc2Cl)[C@H]1O [Vancomycin, reference compound]	–	–	0.75 µg/mL (≈ 0.518 µM)	–	–	–	–	–	–	–	–	–	–	–	–	–	–	–	–	–	MIC [1]: 0.78 µg/mL (≈ 0.538 µM); MIC ([2]; MRSA): 0.78 µg/mL (≈ 0.538 µM); MIC [3]: 1.56 µg/mL (≈ 1.08 µM); MIC [4]: 1.56 µg/mL (≈ 1.08 µM); MIC [5]: 0.78 µg/mL (≈ 0.538 µM); MIC [6]: 0.2 µg/mL (≈ 0.138 µM); MIC ([7]; PRSP): 0.39 µg/mL (≈ 0.269 µM); MIC (S. pyogenes CIP 56.41T): 0.2 µg/mL (≈ 0.138 µM); MIC [8]: > 50 µg/mL; MIC [9]: > 50 µg/mL; MIC [10]: 25 µg/mL (≈ 17.3 µM); MIC (C. difficile CIP 104282): 0.31 µg/mL (≈ 0.214 µM); ED50 [11]: 0.16 mg/kg
O=C(O)c1cn(C2CC2)c2cc(N3CCN(c4ccnc5cc(Cl)ccc45)CC3)c(F)cc2c1=O [hydrochloride]	–	–	–	–	–	–	–	–	–	–	–	–	–	–	–	–	–	–	–	–	MIC [1]: 0.156 µg/mL; fold more active than the sub-structure from which it comes (S. aureus NorA 1199B; S. aureus NorA, versus ciprofloxacin): 280; MIC (S. aureus NorA 1199B; Staphylococcus aureus, NORA1199B): 0.18 µg/mL; MIC (S. pneumoniae PRSP): 0.078 µg/mL; MIC [13]: 0.078 µg/mL; MIC (H. influenzae CIP 102514): 0.312 µg/mL; MIC (E. coli CIP 54127): 0.612 µg/mL; MIC (P. aeruginosa CIP 103467): 5 µg/mL; MIC (B. subtilis CIP 5262): < 0.001 µg/mL; MIC [14]: 0.156 µg/mL
